Here are results for 10 compounds from US10718769B2, “Compounds comprising one or more hydrophobic domains and a hydrophilic domain comprising peg moieties, useful for binding cells” (Roche Diagnostics Operations, Inc., priority 2013, dated 2020).

Values joined by “and” are separate entries in the source; they are usually repeats but may differ in a detail not shown here. Equal entries are not always repeated. Where two headings read alike, the source gives them in different places.

For one experiment, the system named is Epithelial cells. As to the kind of experiment: Labelling of cells using compounds of the invention. Format: cell-based. From the text:
(§1) 2. Labelling of Cells Using Compounds of the Invention

Another experiment deals with WBCs. The experiment is described as above. It counts as cell-based.
Description: as §1

Another experiment concerns WBC. As to the kind of experiment: WBC recovery rate after centrifugation (stabilization of cells, Example 5). It counts as cell-based. To be noted: centrifugation 10 min, 300×g. How it is done:
(§2) Centrifugation characteristics: 10 min, 300×g.
as §2
The respective left, middle and right columns per assay represent different Experimenters 1, 2 and 3. […] Centrifugation characteristics: 10 min, 300×g. Molecule: Cholesteryl-TEG-Cholesteryl-TEG-(SpacerC18)7-Fluos-Biotin-TEG.
Following molecules were tested: 1234: 5′-(Cholesteryl-TEG)2-Spacer C18-dT-Biotin-TEG-3′; 1248: 3′-(Cholesteryl-TEG)2-PEG2000-Fluos-Biotin-TEG-5′ INVERS; 1254: 3′-(Cholesteryl-TEG)2-SpacerC18-Fluos-Biotin-TEG-5′ INVERS; 1255: 3′-(Myristic acid)2-PEG2000-dT-Biotin-TEG-5′ INVERS. […] Centrifugation characteristics: 20 min, 300×g. Respective left column: 10 min incubation with molecule. Respective middle column: 1 h min incubation with molecule. Respective right column: 2 h incubation with molecule.
Following molecules were tested: 1255: 3′-(Myristic acid)2-PEG2000-dT-Biotin-TEG-5′ INVERS; 1234: 5′-(Cholesteryl-TEG)2-Spacer C18-dT-Biotin-TEG-3′; 1248: 3′-(Cholesteryl-TEG)2-PEG2000-Fluos-Biotin-TEG-5′ INVERS; 1254: 3′-(Cholesteryl-TEG)2-SpacerC18-Fluos-Biotin-TEG-5′ INVERS. […] Centrifugation characteristics: 20 min, 500×g. Respective left column: 10 min incubation with molecule. Respective middle column: 1 h min incubation with molecule. Respective right column: 3 h incubation with molecule.
Following molecules were tested: 1255: 3′-(Myristic acid)2-PEG2000-dT-Biotin-TEG-5′ INVERS; 1234: 5′-(Cholesteryl-TEG)2-Spacer C18-dT-Biotin-TEG-3′; 1248: 3′-(Cholesteryl-TEG)2-PEG2000-Fluos-Biotin-TEG-5′ INVERS; 1254: 3′-(Cholesteryl-TEG)2-SpacerC18-Fluos-Biotin-TEG-5′ INVERS. […] Centrifugation characteristics: 20 min, 1000×g. Respective left column: 10 min incubation with molecule. Respective middle column: 1 h min incubation with molecule. Respective right column: 2 h incubation with molecule.
The effect of compounds of the invention on stabilizing cells and on immobilization was determined.
Centrifugation characteristics: 10 min, 300×g. A: Choleseryl-TEG-Cholesteryl-TEG-(SpacerC18)7-Fluos-Biotin-TEG.
Centrifugation characteristics: 10 min, 300×g. Molecule: Cholesteryl-TEG-Cholesteryl-TEG-(SpacerC18)7-Fluos-Biotin-TEG.
Centrifugation characteristics: 20 min, 300×g.
Following molecules were tested: • 1255: 3′-(Myristic acid)2-PEG2000-dT-Biotin-TEG-5′ INVERS • 1234: 5′-(Cholesteryl-TEG)2-Spacer C18-dT-Biotin-TEG-3′ • 1248: 3′-(Cholesteryl-TEG)2-PEG2000-Fluos-Biotin-TEG-5′ INVERS • 1254: 3′-(Cholesteryl-TEG)2-SpacerC18-Fluos-Biotin-TEG-5′ INVERS

A further experiment has as its system MDA-MB468. As to the kind of experiment: Labelling of cells using compounds of the invention. It counts as cell-based.
Description: as §1

Another experiment relates to U937. Described as above. It counts as cell-based.
Description: as §1

In a further experiment the test system is WBC (white blood cells). The settings on record: for MW (mean WBC per well): target: 300.000 WBC. How it is done: 4× determination. Row A: 200 μl PBS introduced, 1 nmol of compound added thereto respectively, mixed, incubated about 30 min, washed 2×PBS, 800 μl PBS introduced, 300.000 WBC (untreated) added. Row B: 800 μl PBS introduced, 300.000 WBC (untreated) added. Row C: 10×10^6 WBC in 1 ml with 10 nmol compound of invention 10 min incubated, 800 μl PBS/Well introduced, 300.000 treated WBC respectively. The first MTP plate washed after 30 min 2× with PBS, overlayed with Höchst and incubated for 15 min.>Cellavista (Operator s9s5) measured. The second plate was measured after 90 min. The third plate was measured after 150 min.
The experiments were performed for different incubation times, as shown below:
As starting material 5′-(Cholesteryl-TEG)2-PEG2000-Fluos-Biotin_TEG-3′ INVERS
(14530 pmol/μl) (Internal Reference No.: 29.891250), and a streptavidin treated MTP (Microcoat), 12 Well plate were used.
Erythrocyte lysis was performed as follows:
EDTA-whole blood 59.423 6.400 WBC/μl (Ambulanz Roche)
lysis buffer: 100 mM NH4Cl+5 mM Hepes+0.5 mM KHCO3+0.1 mM EDTA-K
Ca 1×8 ml whole blood filled in 50 ml Falcon tube with lysis buffer, incubate at room temperature for 10 min
15 min at 250 g centrifugated, pellet resuspended by pipetting in and out in lysis buffer; filled to 50 ml with lysis buffer
15 min 250 g centrifugated, pellet resuspended with PBS, filled to 50 ml with PBS, 15 min 250 g centrifugated, filled to 50 ml with PBS
The design of the experiment on the plate is explained below (see FIG. 2):
3×12 Well MTP: Treatment of the WBC with compounds of the invention:
Row A: 200 μl PBS introduced, 1 nmol of compound added thereto respectively, mixed, incubated about 30 min, washed 2×PBS,
800 μl PBS introduced, 300.000 WBC (untreated) added.
Row B: 800 μl PBS introduced, 300.000 WBC (untreated) added.
Row C: 10×10^6 WBC in 1 ml with 10 nmol compound of invention 10 min incubated, 800 μl PBS/Well introduced, 300.000 treated WBC respectively.
The first MTP plate washed after 30 min 2× with PBS, overlaid with Höchst and incubated for 15 min.>Cellavista (Operator s9s5) measured.
The second plate was measured after 90 min.
The third plate was measured after 150 min.

The test system of the next experiment is CHO. Nature of the experiment: Labelling of cells using compounds of the invention. It counts as cell-based.
Description: as §1

Another experiment deals with Hela. The experiment is described as above. It counts as cell-based. To be noted: * one cell stained weakly.
Description: as §1

A further experiment deals with white blood cells (WBCs). The settings on record: for WBC per well: 300 000 WBCs/well. How it is done:
Aim of this experiment: Testing of the white blood cell immobilization on a streptavidin-coated surface using different molecules of the invention. In particular, the performance of a single cholesterol-molecule and different dual-linker molecules (i.e. containing two hydrophobic moieties) was tested. In detail, immobilization of white blood cells (WBCs) on a Streptavidin-coated surface using different linker molecules was tested on a 12-well plate: 300 000 WBCs/well. This was followed by the measurement of the cell recovery rate after immobilization and washing of the cells using the Cellavista instrument (10× Nuclei Operator s9s5).

Where [1] appears, read: Sample 1, first block of the table (r4-r12), footnote: 1 nmol/10e6 WBCs.
Where [2] appears, read: Sample 1, second block of the table (r13-r21), compound concentration: 1 nmol/10e6 WBCs.
The mark [3] stands for this setting: Sample 2, compound concentration: 100 pmol/10e6 WBCs.
Setting [4] is: Sample 2, compound concentration: 1 nmol/10e6 WBCs.

Regarding “Sulfo-JA133-phenylboronic acid [BMO: 15.000078]”, in the experiment on Epithelial cells, the “Labelling (staining) of Epithelial cells” value is on record as “√”. Besides, the “Labelling (staining) of WBCs” value in the experiment with WBCs is recorded as “√ not all”.

With “5′-CholesterylTEG-CholesterylTEG-(SpacerC18)7-Fluos-BiotinTEG-3′ [BMO 29.891222_Ch03]”, the “WBC recovery rate after centrifugation, dependence on concentration” value in the experiment with WBC is “The higher the molecule concentration, the higher the cell recovery rate after centrifugation”; in the experiment with WBC (listed as molecule A), “The higher the molecule concentration, the higher the cell recovery rate after centrifugation”. Moreover, the “Cell stabilization with different experimenters” value in the experiment on WBC (Experimenters 1, 2 and 3) is “cell stabilization is independent on the experimenter”.

Turning to “5′-alphaTocopherolTEG-PEG2000-Fluos-3′ [BMO 29.891131]”, in the experiment on Epithelial cells, the “Labelling (staining) of Epithelial cells” value is given as “√”. In the experiment on MDA-MB468, the “Labelling (staining) of MDA-MB468” value is recorded as “√”. In addition, in the experiment on U937, the “Labelling (staining) of U937” value is recorded as “√”. Further, the “Labelling (staining) of WBCs” value with WBCs is reported as “√ not all”.

As for “5′-(Cholesteryl-TEG)2-PEG2000-Fluos-Biotin_TEG-3′ INVERS [29.891250]”, the “Mean % / WBC recovery rate [%]” value in the experiment on WBC (white blood cells) (30 min, WBC treated (molecule of invention + cells)) is 77.28%; in the experiment on WBC (white blood cells) (30 min, Well treated (molecule of invention bound to surface)), 21.64%; in the experiment on WBC (white blood cells) (90 min, WBC treated (molecule of invention + cells)), 83.12% and 83.1%; in the experiment with WBC (white blood cells) (90 min, Well treated (molecule of invention bound to surface)), 47.62% and 47.6%; in the experiment on WBC (white blood cells) (120 min, WBC treated (molecule of invention + cells)), 86.23%; in the experiment on WBC (white blood cells) (120 min, Well treated (molecule of invention bound to surface)), 57.02%. Moreover, the “MW (mean WBC per well)” value with WBC (white blood cells) (30 min, WBC treated) stood at 231829.75; in the experiment on WBC (white blood cells) (30 min, Well treated) it was 64909; with WBC (white blood cells) (90 min, WBC treated), 249346.25; in the experiment on WBC (white blood cells) (90 min, Well treated), 142865; in the experiment on WBC (white blood cells) (120 min, WBC treated), 258692.75; in the experiment with WBC (white blood cells) (120 min, Well treated) it was 171062.75.

As for Biotin-PEG-Lysin-(C18)2, the “WBC recovery rate after centrifugation, dependence on concentration” value in the experiment on WBC (listed as molecule B) is “The higher the molecule concentration, the higher the cell recovery rate after centrifugation”.

For `CCCCCCCCCCCCC/C=C/[C@@H](O)[C@H](COP(=O)([O-])OCC[N+](C)(C)C)NC(=O)CCCCc1ccc2n1[B-](F)(F)[N+]1=C(C)C=C(C)C1=C2` [Sphingomyelin, N-(4,4-difluoro-5,7-dimethyl-4-bora-3a,4a-diaza-s-indacene-3-pentanoyl)sphingosyl phosphocholine], in the experiment on CHO, the “Labelling (staining) of CHO” value is recorded as “x very weak”. Also, the “Labelling (staining) of Epithelial cells” value in the experiment with Epithelial cells is “√”. The “Labelling (staining) of Hela” value in the experiment on Hela was “√”. Also, the “Labelling (staining) of WBCs” value in the experiment with WBCs is “(x)- very bad”.

On to “5′-(Cholesterol-TEG)1-Doubler-dT-Biotin-3′ [29.891272]”, for which the “WBC per well” value with white blood cells (WBCs) (setting [1]) is 147132 and 179643 and 181620; in the experiment with white blood cells (WBCs) (setting [2]), 199973 and 220701 and 228481; in the experiment on white blood cells (WBCs) (setting [3]), 161504 and 201424 and 196021; in the experiment with white blood cells (WBCs) (setting [4]) it was 241232 and 254894 and 246129. For the same compound, the “Mean (WBC per well)” value in the experiment with white blood cells (WBCs) (setting [3]) stood at 186316.33; in the experiment on white blood cells (WBCs) (setting [4]) it was 247418.33.

In the case of “5′-(Cholesteryl-TEG)2-Spacer C12-dT-Biotin_TEG-3′ INVERS [29.891253]”, the “WBC per well” value was 105061 and 128195 and 139678 in the experiment on white blood cells (WBCs) (setting [1]); 218861 and 221471 and 208802 with white blood cells (WBCs) (setting [2]); 178919 and 197130 and 187224 with white blood cells (WBCs) (setting [3]); 239105 and 240632 and 231420 in the experiment on white blood cells (WBCs) (setting [4]). Moreover, the “Mean (WBC per well)” value came to 187757.67 with white blood cells (WBCs) (setting [3]) and 237052.33 with white blood cells (WBCs) (setting [4]).

Turning to “5′-Cholesteryl-TEG-PEG2000-Fluos-3′ [BMO 29.891132]”, in the experiment on Epithelial cells, the “Labelling (staining) of Epithelial cells” value is “√”. For the same compound, the “Labelling (staining) of MDA-MB468” value in the experiment on MDA-MB468 was “√”. For the same compound, the “Labelling (staining) of U937” value in the experiment with U937 is “√”. Besides, the “Labelling (staining) of WBCs” value in the experiment on WBCs was “√ not all”.

As to `CCCCCCCCCCCCCCCC(=O)OC[C@H](COP(=O)(O)OCCNC(=O)CCc1ccc2n1[B-](F)(F)[N+]1=C(C)C=C(C)C1=C2)OC(=O)CCCCCCCCCCCCCCC.CCN(CC)CC` [Phosphatidylethanolamine, N-(4,4-difluoro-5,7-dimethyl-4-bora-3a,4a-diaza-s-indacene-3-propionyl)-1,2-dihexadecanoyl-sn-glycero-3-phosphoethanolamine, triethylammonium salt], the “Labelling (staining) of Hela” value in the experiment with Hela is “x/√ very weak”.
